Read-outs that look alike come from different tables or passages of the source. One block for each molecule: values may come before it.
How the values were obtained:
[1] = Mycophenolic acid interdose AUC0-12 h in ISBA requests (MPA plasma levels after MMF dose); type: in vivo, human; conditions: for AUC: human, plasma, oral, Median, read-out: Interdose AUC0_12 h
Method: For patients and data, the dataset was sequentially refined by selecting the requests where MPA plasma levels were measured using HPLC, including at least 3 times of sampling approximately 20 min (10 to 30 min, C20), 60 min (30 to 100 min, C1) and 180 min (140 to 220 min, C3) after dose intake. Actually, the 20, 60, 180 min is the optimal sampling schedule for MMF. A filter was applied to select the requests with an interdose of 12 h. The other predictors available were the morning dose of MMF, the time elapsed between transplantation and MPA plasma sampling, the type of transplant, the associated immunosuppressant and patient age.

[2] = Tacrolimus concentrations and interdose AUC in ISBA requests of renal transplant patients; conditions: human, in vivo, oral; for concentration at 3 h: read-out: Concentration C3 at 3 h; for concentration at 1 h: read-out: Concentration C1 at 1 h; for C0: read-out: Through level C0
Method: Tacrolimus requests from ISBA website were extracted and cleaned using the tidyverse framework. Patient with a renal transplantation and tacrolimus concentrations measured using HPLC methods were selected. The requests including at least 3 sample times at 0 minutes (min), 60 min and 180 min after dose intake were selected with a range of selection of 30 min to 100 min for the 60 min and 140 min to 220 min for the 180 min (the 0, 60, 180 min is the optimal sampling schedule for Prograf® and Advagraf® while the optimal sampling times requested for Envarsus® is 0, 8 and 12 h after dose intake and this later formulation was not included in the analysis).
The dataset was split into two datasets according to the tacrolimus interdose and two independent prediction functions were developed, one for twice a day formulations (TAD; Prograf®) and one for once a day formulations (OAD; Advagraf®).
The present study used supervised learning to predict the inter-dose AUC for which the reference value have been obtained by MAP-BE in the ISBA website based on 3 concentrations.
The tacrolimus concentrations were binned into 3 theoretical time classes (concentrations at trough (C0 sampled at t=0 min), at 1 h (C1 sampled between 30 and 100 min) and at 3 h (C3 sampled between 140 and 220 min), leading to 3 columns per patient.

Interdose AUC0_12 h ([1]; Maximum, TEST (N = 3219)): 163.62 mg·h/L
Interdose AUC0_12 h ([1]; Maximum, TRAIN (N = 9658)): 181.39 mg·h/L
Interdose AUC0_12 h ([1]; Minimum, TEST (N = 3219)): 3.19 mg·h/L
Interdose AUC0_12 h ([1]; Minimum, TRAIN (N = 9658)): 1.12 mg·h/L
AUC ([1]; TEST (N = 3219)): 39200 ng·h/mL
AUC ([1]; TRAIN (N = 9658)): 39300 ng·h/mL
Structure (SMILES): COc1c(C)c2c(c(O)c1C/C=C(\C)CCC(=O)O)C(=O)OC2 [mycophenolic acid]

concentration at 3 h ([2]; Maximum, OAD, Test (n = 394)): 17.9 ng/mL
concentration at 3 h ([2]; Maximum, OAD, Train (n = 1184)): 18.4 ng/mL
concentration at 3 h ([2]; Maximum, TAD, Test (n = 1236)): 16.9 ng/mL
concentration at 3 h ([2]; Maximum, TAD, Train (n = 3708)): 16.6 ng/mL
concentration at 1 h ([2]; Maxmum, OAD, Test (n = 394)): 17.1 ng/mL
concentration at 1 h ([2]; Maxmum, OAD, Train (n = 1184)): 18.4 ng/mL
concentration at 1 h ([2]; Maxmum, TAD, Test (n = 1236)): 21.7 ng/mL
concentration at 1 h ([2]; Maxmum, TAD, Train (n = 3708)): 21.4 ng/mL
concentration at 1 h ([2]; Median, OAD, Test (n = 394)): 12.3 ng/mL
concentration at 3 h ([2]; Median, OAD, Test (n = 394)): 13 ng/mL
AUC ([2]; Median, OAD, Test (n = 394), read-out: Interdose AuC): 222 ng·h/mL
C0 ([2]; Median, OAD, Test (n = 394)): 12.3 ng/mL
concentration at 1 h ([2]; Median, OAD, Train (n = 1184)): 12.6 ng/mL
concentration at 3 h ([2]; Median, OAD, Train (n = 1184)): 13.9 ng/mL
AUC ([2]; Median, OAD, Train (n = 1184), read-out: Interdose AuC): 236 ng·h/mL
C0 ([2]; Median, OAD, Train (n = 1184)): 12.6 ng/mL
concentration at 1 h ([2]; Median, TAD, Test (n = 1236)): 15.4 ng/mL
concentration at 3 h ([2]; Median, TAD, Test (n = 1236)): 12.8 ng/mL
AUC ([2]; Median, TAD, Test (n = 1236), read-out: Interdose AuC): 130 ng·h/mL
C0 ([2]; Median, TAD, Test (n = 1236)): 15.4 ng/mL
concentration at 1 h ([2]; Median, TAD, Train (n = 3708)): 14.7 ng/mL
concentration at 3 h ([2]; Median, TAD, Train (n = 3708)): 12.4 ng/mL
AUC ([2]; Median, TAD, Train (n = 3708), read-out: Interdose AuC): 128 ng·h/mL
C0 ([2]; Median, TAD, Train (n = 3708)): 14.7 ng/mL
concentration at 1 h ([2]; Minimum, OAD, Test (n = 394)): 8.6 ng/mL
concentration at 3 h ([2]; Minimum, OAD, Test (n = 394)): 9.51 ng/mL
concentration at 1 h ([2]; Minimum, OAD, Train (n = 1184)): 9 ng/mL
concentration at 3 h ([2]; Minimum, OAD, Train (n = 1184)): 9.8 ng/mL
concentration at 1 h ([2]; Minimum, TAD, Test (n = 1236)): 10.5 ng/mL
concentration at 3 h ([2]; Minimum, TAD, Test (n = 1236)): 9.6 ng/mL
concentration at 1 h ([2]; Minimum, TAD, Train (n = 3708)): 10.2 ng/mL
concentration at 3 h ([2]; Minimum, TAD, Train (n = 3708)): 9.3 ng/mL
AUC ([2]; OAD, cleaned ISBA datasets, read-out: interdose AUCs range): 44 to 698 ng·h/mL
AUC ([2]; TAD, cleaned ISBA datasets, read-out: interdose AUCs range): 22 to 380 ng·h/mL
Structure (SMILES): C=CC[C@@H]1/C=C(\C)C[C@H](C)C[C@H](OC)[C@H]2O[C@@](O)(C(=O)C(=O)N3CCCC[C@H]3C(=O)O[C@H](/C(C)=C/[C@@H]3CC[C@@H](O)[C@H](OC)C3)[C@H](C)[C@@H](O)CC1=O)[C@H](C)C[C@@H]2OC [tacrolimus]
